Assay results: patent publication US12594267B2, “Capsid inhibitors for the treatment of HIV” (Gilead Sciences, Inc., priority 2018, dated 2026)

Assay: PK after subcutaneous administration of solutions in dogs
Assay type: in vivo, Beagle dog
Conditions: for Plasma concentration: SC 12 mg/kg, 300 mg/mL (22.6% water/50% PEG 300/1.1% NaOH/26.3% Formula (Ia))
Experimental: Formulations containing the compound of Formula (Ia) were prepared as aqueous solutions or oral formulations and administered subcutaneously to rats, dogs, cynomolgus monkey, and/or rhesus monkey.
A solution of the compound of Formula (Ia) in 10% ethanol, 13% water, and 77% PEG 200 (400 mg/mL) was prepared. The solution was administered subcutaneously to dogs at a dose of 12 mg/kg and rats at a dose of 50 mg/kg and the pharmacokinetic (PK) profile was determined. […] In both species, plasma concentrations of the compound of Formula (Ia) were maintained above the target trough concentration of 20 nM (corresponding to an IQ of 5) for at least 84 days (12 weeks).
A solution of the compound of Formula (Ia) in 15% water and 85.0 PEG 300 (400 mg/mL) was prepared. The solution was administered subcutaneously to male beagle dogs at a dose level of 12 mg/kg and dose volume of […] and the pharmacokinetic (PK) profile was determined.
A solution of the compound of Formula (a) sodium salt in water and 300 (300 mg/mL) was prepared that contained 22.6% water/50% PEG 300/1.1% NaOH/26.3% Formula (Ia). The solution was administered subcutaneously to male beagle dogs at a dose level of 12 mg/kg and dose volume of […] and the pharmacokinetic (PK) profile was determined.
A 300 mg/ml solution of a compound of Formula (Ia) having 9.8 w/w % water, 65.0 w/w % PEG 300, and 25.2 w/w % of the compound of Formula (Ia) was prepared. The solution was administered subcutaneously to rats at a dose of 50 mg/kg and to dogs at a dose of 12 mg/kg and the pharmacokinetic (PK) profile was determined. […] In the rat, plasma concentrations of the compound of Formula (Ia) were maintained above the target trough concentration of 20 nM for at least 168 days (24 weeks). In the dog, plasma concentrations of the compound of Formula (Ia) were maintained above the target trough concentration of 20 nM for at least 84 days (12 weeks).
(§1) A 150 mg/ml solution of a compound of Formula (Ia) having 27.92 w/w % water, 58.04 w/w % PEG 300, 13.47 w/w % of a compound of Formula (Ia), and 1.1 w/w % NaOH was prepared. The solution was administered subcutaneously to rats at a dose of 50 mg/kg and to dogs at a dose of 12 mg/kg and the pharmacokinetic (PK) profile was determined. […] In the rat, plasma concentrations of the compound of Formula (Ia) were maintained above the target trough concentration of 20 nM for at least 126 days (18 weeks). In the dog, plasma concentrations of the compound of Formula (Ia) were maintained above the target trough concentration of 20 nM for at least 56 days (8 weeks).
as §1, with “300” for “150”, “23.2” for “27.92”, “50.0” for “58.04”, “25.7” for “13.47”
A 50 mg/ml solution of a compound of Formula (Ia) having 30.07 w/w % water, 64.40 w/w % PEG 300, 4.68 w/w % of a sodium salt of the compound of Formula (Ia), and 0.85 w/w % poloxamer 188 was prepared. The solution was administered subcutaneously to rats at a dose of 50 mg/kg and to dogs at a dose of 6 mg/kg and the pharmacokinetic (PK) profile was determined. […] In the rat, plasma concentrations of the compound of Formula (Ia) were maintained above the target trough concentration of 20 nM for at least 28 days (4 weeks). In the dog, plasma concentrations of the compound of Formula (Ia) were maintained above the target trough concentration of 20 nM for at least 14 days (2 weeks). […]

[1] = male beagle dog, single SC 12 mg/kg, 300 mg/mL, 50, 22.6, 1.1, 26.3 w/w % PEG300:Water:NaOH:Formula (Ia), mean ± SD, n=3

For `CC(C)(C#Cc1ccc(-c2ccc(Cl)c3c([N-]S(C)(=O)=O)nn(CC(F)(F)F)c23)c([C@H](Cc2cc(F)cc(F)c2)NC(=O)Cn2nc(C(F)(F)F)c3c2C(F)(F)[C@@H]2C[C@H]32)n1)S(C)(=O)=O.[Na+]` [Formula (Ia) sodium salt], the Plasma concentration (dog #1, 0 h) was “BLQ”, the Plasma concentration (dog #1, 1.0 h) was 14.0 nM and the Plasma concentration (dog #1, 3.0 h) was 26.0 nM. For the same compound, the Plasma concentration (dog #1, 8.0 h) was 56.3 nM, the Plasma concentration (dog #1, 24 h) was 57.1 nM and the Plasma concentration (dog #1, 48 h) was 71.1 nM. It also gave a Plasma concentration (dog #1, 72 h) of 51.5 nM, a Plasma concentration (dog #1, 96 h) of 46.4 nM and a Plasma concentration (dog #1, 168 h) of 47.7 nM. The Plasma concentration (dog #2, 0 h) was “BLQ”, the Plasma concentration (dog #2, 1.0 h) was 7.2 nM and the Plasma concentration (dog #2, 3.0 h) was 17.0 nM. For the same compound, the Plasma concentration (dog #2, 8.0 h) was 25.8 nM, the Plasma concentration (dog #2, 24 h) was 25.4 nM and the Plasma concentration (dog #2, 48 h) was 29.0 nM. It also gave a Plasma concentration (dog #2, 72 h) of 16.2 nM, a Plasma concentration (dog #2, 96 h) of 14.0 nM and a Plasma concentration (dog #2, 168 h) of 13.6 nM. For the same compound, the Plasma concentration (dog #3, 0 h) was “BLQ”, the Plasma concentration (dog #3, 1.0 h) was 8.6 nM and the Plasma concentration (dog #3, 3.0 h) was 16.8 nM. The Plasma concentration (dog #3, 8.0 h) was 32.1 nM, the Plasma concentration (dog #3, 24 h) was 54.5 nM and the Plasma concentration (dog #3, 48 h) was 57.8 nM. The Plasma concentration (dog #3, 72 h) was 58.0 nM, the Plasma concentration (dog #3, 96 h) was 59.2 nM and the Plasma concentration (dog #3, 168 h) was 43.1 nM. For the same compound, the Plasma concentration (dog mean, n=3, 1.0 h) was 10.0 nM, the Plasma concentration (dog mean, n=3, 3.0 h) was 19.9 nM and the Plasma concentration (dog mean, n=3, 8.0 h) was 38.1 nM. It also gave a Plasma concentration (dog mean, n=3, 24 h) of 45.7 nM, a Plasma concentration (dog mean, n=3, 48 h) of 52.6 nM and a Plasma concentration (dog mean, n=3, 72 h) of 41.9 nM. It also gave a Plasma concentration (dog mean, n=3, 96 h) of 39.9 nM, a Plasma concentration (dog mean, n=3, 168 h) of 34.8 nM and an AUC0-24h [1] of 0.85 ± 0.31 µM·h. The AUC0-48h [1] was 2.03 ± 0.76 µM·h, the AUC0-72h [1] was 3.16 ± 1.27 µM·h and the AUC0-168h [1] was 6.83 ± 3.24 µM·h.
